# Experimental data as given in patent US20080021086A1, “Pharmaceutical Composition for Prevention or Treatment of Lipid Metabolism Disorder” (KISSEI PHARMACEUTICAL CO., LTD., priority 2004, published 2008).
# Experiments:
# Type 2 diabetic patients = test: Clinical efficacy on lipid metabolism disorders in diabetic patients (clinical study of mitiglinide calcium hydrate tablets); type: in vivo, human
# Experimental: The following clinical study was conducted in Type 2 diabetic patients using tablets containing 5 mg of mitiglinide calcium hydrate and tablets containing 10 mg of mitiglinide calcium hydrate.
# Patients included: Type 2 diabetic patients;
# Mode of dosing: oral administration of 5 to 20 mg as a single dose three times per day just before (5 minutes before) each meal;
# Dosing period: 28 weeks to 52 weeks;
# Major items of observation: stabilized hemoglobin A1c (HbA1c), biochemical examination of blood (total cholesterol, triglyceride, LDL-cholesterol, HDL-cholesterol, free fatty acid);
# Statistical Method: in all patients with an abnormal value of each lipid at pretreatment and without any hypolipidemic agent, significance test was conducted on the average of the final evaluation against the average of the pretreatment (*: P<0.05, **: P<0.01).
# Patients with 150 mg/dL or more of serum TG at pretreatment were picked out as an abnormal group, the efficacy of mitiglinide calcium hydrate was evaluated on the group.
# Patients with 200 mg/dL or more of serum TC at pretreatment were picked out as an abnormal group, the efficacy of mitiglinide calcium hydrate was evaluated.
# Patients with 0.86 mEq/L or more of serum free fatty acid (FFA), 120 mg/dL or more of LDL-cholesterol (LDL-C) and less than 40 mg/dL of HDL-cholesterol at pretreatment, respectively, were picked out as abnormal groups, the efficacy of mitiglinide calcium hydrate was evaluated.
# diabetic patient = conditions: single dose; cited from earlier work
# [1] = after 12-week repeated administration compared to pretreatment; cited from earlier work
# diabetic patients = conditions: single dose, compared to placebo; cited from earlier work
# [2] = Example 2, person, 52 weeks vs pretreatment
# [3] = Example 4, person, 40 weeks vs pretreatment
# [4] = Example 5, person, 24 weeks vs pretreatment
# [5] = Example 6, person, 52 weeks vs pretreatment
# [6] = Example 7, person, 52 weeks vs pretreatment
compound,measurement,setting,value
"O.O.O=C(O)[C@H](CC(=O)N1C[C@H]2CCCC[C@H]2C1)Cc1ccccc1.[Ca] [mitiglinide calcium hydrate, (2S)-2-benzyl-3-(cis-hexa hydro-2-isoindolinylcarbonyl)propionic acid calcium dihydrate]",FFA at the final evaluation,"Type 2 diabetic patients; Example 2, person, 10 mg till 16th week then 20 mg, after 52-week administration, pretreatment 0.94",0.26 mEq/L
same,LDL-C at the final evaluation,"Type 2 diabetic patients; Example 2, person, 10 mg till 16th week then 20 mg, after 52-week administration, pretreatment 137",108 mg/dL
same,TC at the final evaluation,"Type 2 diabetic patients; Example 2, person, 10 mg till 16th week then 20 mg, after 52-week administration, pretreatment 240",185 mg/dL
same,change of FFA,Type 2 diabetic patients; [2],−0.68 mEq/L
same,change of LDL-C,Type 2 diabetic patients; [2],-29 mg/dL
same,change of TC,Type 2 diabetic patients; [2],-55 mg/dL
same,TG at the final evaluation,"Type 2 diabetic patients; Example 3, person, 10 mg, after 52-week administration, pretreatment 171",110 mg/dL
same,change of TG,"Type 2 diabetic patients; Example 3, person, 52 weeks vs pretreatment",-61 mg/dL
same,TG at the final evaluation,"Type 2 diabetic patients; Example 4, person, 10 mg till 16th week then 20 mg, after 40-week administration, pretreatment 163",101 mg/dL
same,TC at the final evaluation,"Type 2 diabetic patients; Example 4, person, 10 mg till 16th week then 20 mg, after 40-week administration, pretreatment 214",162 mg/dL
same,change of TC,Type 2 diabetic patients; [3],-52 mg/dL
same,change of TG,Type 2 diabetic patients; [3],-62 mg/dL
same,FFA at the final evaluation,"Type 2 diabetic patients; Example 5, person with concomitant hyperlipidemia, 10 mg till 16th week then 20 mg, after 24-week administration, pretreatment 0.53",0.30 mEq/L
same,TG at the final evaluation,"Type 2 diabetic patients; Example 5, person with concomitant hyperlipidemia, 10 mg till 16th week then 20 mg, after 24-week administration, pretreatment 213",145 mg/dL
same,change of FFA,Type 2 diabetic patients; [4],−0.23 mEq/L
same,change of TG,Type 2 diabetic patients; [4],-68 mg/dL
same,LDL-C at the final evaluation,"Type 2 diabetic patients; Example 6, person with concomitant hyperlipidemia, 10 mg, after 52-week administration, pretreatment 149",134 mg/dL
same,TC at the final evaluation,"Type 2 diabetic patients; Example 6, person with concomitant hyperlipidemia, 10 mg, after 52-week administration, pretreatment 260",203 mg/dL
same,change of LDL-C,Type 2 diabetic patients; [5],-15 mg/dL
same,change of TC,Type 2 diabetic patients; [5],-57 mg/dL
same,HDL-C at the final evaluation,"Type 2 diabetic patients; Example 7, person, 10 mg, after 52-week administration, pretreatment 57",72 mg/dL
same,LDL-C at the final evaluation,"Type 2 diabetic patients; Example 7, person, 10 mg, after 52-week administration, pretreatment 129",116 mg/dL
same,TG at the final evaluation,"Type 2 diabetic patients; Example 7, person, 10 mg, after 52-week administration, pretreatment 170",100 mg/dL
same,TC at the final evaluation,"Type 2 diabetic patients; Example 7, person, 10 mg, after 52-week administration, pretreatment 226",206 mg/dL
same,change of HDL-C,Type 2 diabetic patients; [6],+15 mg/dL
same,change of LDL-C,Type 2 diabetic patients; [6],-13 mg/dL
same,change of TC,Type 2 diabetic patients; [6],-20 mg/dL
same,change of TG,Type 2 diabetic patients; [6],-70 mg/dL
same,"Average of TG, Final evaluation","Type 2 diabetic patients; all patients with 150 mg/dL or more of pretreatment TG, oral 5 to 20 mg three times per day, 28 to 52 weeks, pretreatment average 262.6, ** P<0.01 vs pretreatment",216.3** mg/dL
same,"Average of TC, After the end of administration","Type 2 diabetic patients; all patients with 200 mg/dL or more of TC at pretreatment, oral 5 to 20 mg three times per day, 28 to 52 weeks, pretreatment average 231.8, * P<0.05 vs pretreatment",226.4* mg/dL
same,"Average LDL-C, After the end of administration","Type 2 diabetic patients; patients with 120 mg/dL or more of LDL-C at pretreatment, pretreatment average 144.9, ** P<0.01",137.7** mg/dL
same,"Average FFA, After the end of administration","Type 2 diabetic patients; patients with 0.86 mEq/L or more of FFA at pretreatment, pretreatment average 1.021, ** P<0.01",0.745** mEq/L
same,overall effect on blood lipids,"Type 2 diabetic patients; patients with high blood TG, blood TC, FFA or LDL-C, or low HDL-C","remarkable effects to lower TG, TC, LDL-C or FFA, or increase HDL-C"
same,"Average HDL-C, After the end of administration","Type 2 diabetic patients; patients with less than 40 mg/dL of HDL-C at pretreatment, pretreatment average 34.7, ** P<0.01",40.3** mg/dL
CC(C)[C@H]1CC[C@H](C(=O)N[C@H](Cc2ccccc2)C(=O)O)CC1 [nateglinide],effect on postprandial increase of triglyceride,diabetic patient,suppressed postprandial increase of triglyceride
same,effect on postprandial lipid variation,[1],did not show a significant improvement
CCOc1cc(CC(=O)N[C@@H](CC(C)C)c2ccccc2N2CCCCC2)ccc1C(=O)O [repaglinide],effect on postprandial lipid variation,diabetic patients,did not show significant improving effect
